Data: US6870056B1, “Substitituted polycyclic aryl and heteroaryl pyridones useful for selective inhibition of the coagulation cascade” (Pharmacia Corporation, priority 1999, dated 2005)

What was measured:
Type in all cases: biochemical
[1] = molecular target: T1, recombinant soluble tissue factor and recombinant human factor VIIa (TF-VIIa) (Homo sapiens, UniProt P08709); experiment: TF-VIIa Assay; settings: chromogenic substrate, 60 min, room temperature, pH 8.0
T1 construct: purchased American Diagnostica, Greenwich Conn; host or cells: soluble TF made in house in E. coli
Experimental: (§1) In this assay 100 nM recombinant soluble tissue factor and 2 nM recombinant human factor VIIa are added to a 96-well assay plate containing 0.4 mM of the substrate, N-Methylsulfonyl-D-phe-gly-arg-p-nitroaniline and either inhibitor or buffer (5 mM CaCl2,50 mM Tris-HCl, pH 8.0, 100 mM NaCl, 0.1% BSA). The reaction, in a final volume of 100 ul is measured immediately at 405 nm to determine background absorbance. The plate is incubated at room temperature for 60 min, at which time the rate of hydrolysis of the substrate is measured by monitoring the reaction at 405 nm for the release of p-nitroaniline. Percent inhibition of TF-VIIa activity is calculated from OD405 nm value from the experimental and control sample.
(§2) Recombinant soluble TF, consisting of amino acids 1-219 of the mature protein sequence was expressed in E. coli and purified using a Mono Q Sepharose FPLC. Recombinant human VIIa was purchased from American Diagnostica, Greenwich Conn. and chromogenic substrate N-Methylsulfonyl-D-phe-gly-arg-p-nitroaniline was prepared by American Peptide Company, Inc., Sunnyvale, Calif. Factor Xa was obtained from Enzyme Research Laboratories, South Bend Ind., thrombin from Calbiochem, La Jolla, Calif., and trypsin and L-BAPNA from Sigma, St Louis Mo. The chromogenic substrates S-2765 and S-2238 were purchased from Chromogenix, Sweden.

human factor Xa = molecular target: T2, human factor Xa (Homo sapiens, UniProt P00742); experiment: Xa Assay; settings: S-2765 substrate, 60 min, room temperature, pH 8.0
T2 construct: leads from XII to XIIa to XIa to IXa and to the conversion of X to Xa; purchased Enzyme Research Laboratories, South Bend Ind
Experimental: as §1, with “0.3” for “In this assay 100”, “nM” for “nM recombinant soluble tissue factor and 2 nM recombinant”, “Xa and 0.15 mM N-α-Benzyloxycarbonyl-D-arginyl-L-glycyl-L-arginine-p-nitroaniline-dihydrochloride (S-2765)” for “VIIa”, “containing” for “containing 0.4 mM of the substrate, N-Methylsulfonyl-D-phe-gly-arg-p-nitroaniline and”, “(50” for “(5 mM CaCl2,50”, “Xa” for “TF-VIIa”
as §2

human thrombin = human thrombin (Homo sapiens, UniProt P00734); experiment: Thrombin Assay; settings: chromogenic substrate, 60 min, room temperature, pH 8.0; read-out: Thrombin II IC50
Experimental: Percent inhibition of thrombin activity is calculated from OD405 nm value from the experimental and control sample.
Recombinant human VIIa was purchased from American Diagnostica, Greenwich Conn. and chromogenic substrate N-Methylsulfonyl-D-phe-gly-arg-p-nitroaniline was prepared by American Peptide Company, Inc., Sunnyvale, Calif. Factor Xa was obtained from Enzyme Research Laboratories, South Bend Ind., thrombin from Calbiochem, La Jolla, Calif., and trypsin and L-BAPNA from Sigma, St Louis Mo.

[2] = molecular target: T3, trypsin, type IX from porcine pancreas (Sus scrofa, UniProt P00761); experiment: Trypsin Assay; settings: L-BAPNA substrate, 60 min, room temperature, pH 8.0; read-out: Trpysin II ICSO
T3 construct: purchased Sigma, St Louis Mo. type IX; host or cells: porcine pancreas
Experimental: 5 ug/ml trypsin, type IX from porcine pancreas and 0.375 mM N-α-Benzoyl-L-arginine-p-nitroanilide (L-BAPNA) are added to a 96-well assay plate containing either inhibitor or buffer (50 mM Tris-HCl, pH 8.0, 100 mM NaCl, 0.1% BSA). The reactions, in a final volume of 100 ul are measured immediately at 405 nm to determine background absorbance. The plate is incubated at room temperature for 60 min, at which time the rate of hydrolysis of the substrate is measured by monitoring the reaction at 405 nm for the release of p-nitroaniline. Percent inhibition of trypsin activity is calculated from OD405 nm value from the experimental and control sample.
as §2

T2 sequence (P00742 235-488 limits assumed): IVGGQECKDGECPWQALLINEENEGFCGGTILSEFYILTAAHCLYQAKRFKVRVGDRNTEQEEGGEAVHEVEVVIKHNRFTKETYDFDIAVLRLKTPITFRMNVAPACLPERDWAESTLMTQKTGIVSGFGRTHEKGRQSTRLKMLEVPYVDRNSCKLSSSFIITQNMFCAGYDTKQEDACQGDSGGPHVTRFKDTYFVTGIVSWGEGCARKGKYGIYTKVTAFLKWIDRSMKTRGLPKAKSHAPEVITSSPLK
T2 sequence (P00742 41-179 partner limits assumed): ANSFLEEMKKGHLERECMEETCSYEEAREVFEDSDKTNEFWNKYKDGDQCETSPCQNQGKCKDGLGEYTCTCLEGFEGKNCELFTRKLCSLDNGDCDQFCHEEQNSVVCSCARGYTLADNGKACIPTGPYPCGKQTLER
T1 sequence (P08709 213-466 limits assumed): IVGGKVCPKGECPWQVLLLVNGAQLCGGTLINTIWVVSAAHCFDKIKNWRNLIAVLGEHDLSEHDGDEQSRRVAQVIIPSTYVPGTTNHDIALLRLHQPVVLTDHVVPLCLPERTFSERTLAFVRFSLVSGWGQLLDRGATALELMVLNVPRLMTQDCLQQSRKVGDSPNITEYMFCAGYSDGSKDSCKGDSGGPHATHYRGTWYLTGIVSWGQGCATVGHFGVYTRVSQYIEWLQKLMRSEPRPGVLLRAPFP
T1 sequence (P08709 61-212 partner limits assumed): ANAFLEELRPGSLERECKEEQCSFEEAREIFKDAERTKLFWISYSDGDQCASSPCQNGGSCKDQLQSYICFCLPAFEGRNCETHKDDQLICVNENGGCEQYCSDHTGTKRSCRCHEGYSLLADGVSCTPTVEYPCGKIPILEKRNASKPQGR
T1 sequence (P13726 33-251 partner limits assumed): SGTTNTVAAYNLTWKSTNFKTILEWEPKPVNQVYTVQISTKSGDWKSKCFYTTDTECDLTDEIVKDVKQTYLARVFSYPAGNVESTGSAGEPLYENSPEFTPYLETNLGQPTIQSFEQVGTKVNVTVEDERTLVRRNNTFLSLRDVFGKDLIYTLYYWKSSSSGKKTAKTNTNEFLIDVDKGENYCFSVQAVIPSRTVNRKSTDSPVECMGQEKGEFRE
T3 sequence (P00761 9-231): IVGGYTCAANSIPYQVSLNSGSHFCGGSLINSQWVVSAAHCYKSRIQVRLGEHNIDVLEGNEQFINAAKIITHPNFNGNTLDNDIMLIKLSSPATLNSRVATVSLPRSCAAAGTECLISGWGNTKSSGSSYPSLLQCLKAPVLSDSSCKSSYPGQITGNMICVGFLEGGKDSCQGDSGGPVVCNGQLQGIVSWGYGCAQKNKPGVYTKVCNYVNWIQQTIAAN

Structure (SMILES) | IC50 [1] [µM] | IC50 (human factor Xa) [µM] | IC50 (human thrombin) [µM] | IC50 [2] [µM]
NCCCCNC(=O)Cn1c(=O)c(NS(=O)(=O)Cc2ccccc2)cc2ccccc21 [Example 7] | > 30 | > 30 | > 30 | > 30
N=C(N)c1ccc(CNC(=O)Cn2c(=O)c(NS(=O)(=O)c3ccccc3)cc3ccccc32)cc1 [Example 4] | > 30 | 23.1 | 22.7 | 0.48
N=C(N)c1ccc(CNC(=O)Cn2c(=O)c(NS(=O)(=O)Cc3ccccc3)cc3ccccc32)cc1 [Example 2, N-[[4-[(amino)iminomethyl]phenyl]methyll]-2-[3-benzylsulfonyl-amino-2-oxo-2H-quinolin-1-yl]acetamide] | 46 | 7.7 | 5.5 | 0.5
CN(C)CCCCCCNC(=O)Cn1c(=O)c(NS(=O)(=O)Cc2ccccc2)cc2ccccc21 [Example 9] | > 30 | > 30 | > 30 | > 30
Nc1ccc(CCNC(=O)Cn2c(=O)c(NS(=O)(=O)Cc3ccccc3)cc3ccccc32)cc1 [Example 6] | > 30 | > 30 | > 30 | > 30
NCCCCCNC(=O)Cn1c(=O)c(NS(=O)(=O)Cc2ccccc2)cc2ccccc21 [Example 8] | > 30 | > 30 | > 30 | > 30
NCc1ccc(CNC(=O)Cn2c(=O)c(NS(=O)(=O)Cc3ccccc3)cc3ccccc32)cc1 [Example 10] | > 30 | > 30 | > 30 | > 30
O=C(Cn1c(=O)c(NS(=O)(=O)Cc2ccccc2)cc2ccccc21)NCCc1cccnc1 [Example 14] | > 30 | > 30 | > 30 | > 30
N=C(N)NCCC[C@H](NC(=O)Cn1c(CCc2ccccc2)ccc(NS(=O)(=O)Cc2ccccc2)c1=O)C(=O)c1nccs1 [Example 17, N-[2(S)-2-[1-Oxo-1-(2-thiazolyl)]-5-[[(amino)iminomethyl]amino]pentyl]-2-[6-(2-phenylethyl)-2-oxo-3-[[(phenylmethyl)sulfonyl]amino]-1(2H)-pyrid-1-yl]acetamide] | 1.1 | 0.1 | 0.2 | 0.3
CN1CCC(CCCNC(=O)Cn2c(=O)c(NS(=O)(=O)Cc3ccccc3)cc3ccccc32)CC1 [Example 15] | > 30 | > 30 | > 30 | > 30
O=C(Cn1c(=O)c(NS(=O)(=O)Cc2ccccc2)cc2ccccc21)NCCc1cnc[nH]1 [Example 13] | > 30 | > 30 | > 30 | > 30
Nc1ccc(CNC(=O)Cn2c(=O)c(NS(=O)(=O)Cc3ccccc3)cc3ccccc32)cc1 [Example 16] | > 30 | > 30 | > 30 | > 30
N=C(N)N1CCC(CNC(=O)Cn2c(CCc3ccccc3)ccc(NS(=O)(=O)Cc3ccccc3)c2=O)CC1 [Example 21] | > 30 | 17 | 0.5 | 0.6
N=C(N)c1ccc(CNC(=O)Cn2c(CCc3ccccc3)ccc(NS(=O)(=O)Cc3ccccc3)c2=O)cc1 [Example 19, N-[[4-[(amino)iminomethyl]phenyl]methyl)-2-[6-(2-phenylethyl)-2-oxo-3-[[(phenylmethyl)sulfonyl]amino]-1(2H)-pyrid-1-yl]acetamide] | 18 | 4.1 | 0.4 | < 0.1
Cc1ccc(NS(=O)(=O)Cc2ccccc2)c(=O)n1CC(=O)NCC1CCN(C(=N)N)CC1 [Example 22] | > 30 | – | – | 11.1
Cc1ccc(NS(=O)(=O)Cc2ccccc2)c(=O)n1CC(=O)NCc1ccc(C(=N)N)cc1 [Example 20, N-[(4-[[amino)iminomethyl]phenyl]methyl]-2-[6-methyl-2-oxo-3-[[(phenylmethyl)sulfonyl]amino]-1(2H)-pyrid-1-yl]acetamide] | 23 | 5.7 | 0.3 | 0.5
N=C(N)NCCC[C@H](NC(=O)Cn1c(=O)c(NS(=O)(=O)Cc2ccccc2)cc2ccccc21)C(=O)c1nccs1 [Example 1] | 4.6 | 0.07 | 0.7 | 0.21
Cc1ccc(NS(=O)(=O)Cc2ccccc2)c(=O)n1CC(=O)N[C@@H](CCCNC(=N)N)C(=O)c1nccs1 [Example 18, N-[2(S)-2-[1-Oxo-1-(2-thiazolyl)]-5-[[(amino)iminomethyl]amino]pentyl]-2-[6-methyl-2-oxo-3-[[(phenylmethyl)sulfonyl]amino]-1(2H)-pyrid-1-yl]acetamide] | 0.8 | < 4 | < 0.04 | 0.2
NCc1cccc(CNC(=O)Cn2c(=O)c(NS(=O)(=O)Cc3ccccc3)cc3ccccc32)c1 [Example 11] | > 30 | > 30 | > 30 | > 30
O=C(Cn1c(=O)c(NS(=O)(=O)Cc2ccccc2)cc2ccccc21)NCCCn1ccnc1 [Example 12] | > 30 | > 30 | > 30 | > 30
N=C(N)c1ccc(CNC(=O)Cn2c(=O)c(NCCc3ccccc3)cc3ccccc32)cc1 [Example 3] | 26.1 | > 30 | 11 | 0.86
